This passage reports IC50 results from patent US7205295B2, “Benzoxazin-3-ones and derivatives thereof as therapeutic agents” (Warner-Lambert Company LLC, priority 2002, dated 2007).

By pIC50 is commonly meant the IC50 on a negative log10 scale, so that one unit is a factor of ten.

pIC50: −log10 of the molar value.

The target of the assay is T1, PI3Kγ (p101/p110γ protein) (Homo sapiens, UniProt P48736).
T1 construct: HA; made in house; host or cells: Spodoptera frugiperda (Sf9) cells, baculovirus co-infection
T1 sequence (P48736 whole entry, species assumed): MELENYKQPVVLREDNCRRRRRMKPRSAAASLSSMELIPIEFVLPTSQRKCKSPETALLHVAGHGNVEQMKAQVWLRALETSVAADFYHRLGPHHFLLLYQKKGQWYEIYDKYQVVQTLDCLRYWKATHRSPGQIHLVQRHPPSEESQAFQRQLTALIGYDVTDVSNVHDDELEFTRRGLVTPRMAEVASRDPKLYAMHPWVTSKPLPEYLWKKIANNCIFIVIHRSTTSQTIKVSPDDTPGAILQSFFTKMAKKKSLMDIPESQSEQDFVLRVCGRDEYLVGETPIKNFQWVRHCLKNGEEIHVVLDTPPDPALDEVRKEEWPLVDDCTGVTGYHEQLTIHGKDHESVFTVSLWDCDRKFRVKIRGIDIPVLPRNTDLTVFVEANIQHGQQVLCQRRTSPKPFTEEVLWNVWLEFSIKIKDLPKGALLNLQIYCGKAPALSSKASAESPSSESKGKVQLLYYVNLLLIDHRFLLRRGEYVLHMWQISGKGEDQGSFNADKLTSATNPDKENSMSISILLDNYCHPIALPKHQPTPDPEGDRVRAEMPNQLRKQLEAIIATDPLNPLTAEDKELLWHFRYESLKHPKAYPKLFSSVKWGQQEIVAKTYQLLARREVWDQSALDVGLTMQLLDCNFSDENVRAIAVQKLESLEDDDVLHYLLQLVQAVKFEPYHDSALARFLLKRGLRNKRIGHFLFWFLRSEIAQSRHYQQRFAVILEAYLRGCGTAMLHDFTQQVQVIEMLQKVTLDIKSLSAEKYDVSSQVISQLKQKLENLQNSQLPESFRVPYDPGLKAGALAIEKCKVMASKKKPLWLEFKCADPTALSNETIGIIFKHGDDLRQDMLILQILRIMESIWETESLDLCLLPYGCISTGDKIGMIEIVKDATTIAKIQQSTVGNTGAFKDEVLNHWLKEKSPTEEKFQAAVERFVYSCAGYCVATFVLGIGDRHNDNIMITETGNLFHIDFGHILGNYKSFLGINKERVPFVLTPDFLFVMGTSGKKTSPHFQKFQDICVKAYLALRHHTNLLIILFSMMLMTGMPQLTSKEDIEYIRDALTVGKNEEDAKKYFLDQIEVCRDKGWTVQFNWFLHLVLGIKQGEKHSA
T1 sequence (Q8WYR1 whole entry partner, species assumed): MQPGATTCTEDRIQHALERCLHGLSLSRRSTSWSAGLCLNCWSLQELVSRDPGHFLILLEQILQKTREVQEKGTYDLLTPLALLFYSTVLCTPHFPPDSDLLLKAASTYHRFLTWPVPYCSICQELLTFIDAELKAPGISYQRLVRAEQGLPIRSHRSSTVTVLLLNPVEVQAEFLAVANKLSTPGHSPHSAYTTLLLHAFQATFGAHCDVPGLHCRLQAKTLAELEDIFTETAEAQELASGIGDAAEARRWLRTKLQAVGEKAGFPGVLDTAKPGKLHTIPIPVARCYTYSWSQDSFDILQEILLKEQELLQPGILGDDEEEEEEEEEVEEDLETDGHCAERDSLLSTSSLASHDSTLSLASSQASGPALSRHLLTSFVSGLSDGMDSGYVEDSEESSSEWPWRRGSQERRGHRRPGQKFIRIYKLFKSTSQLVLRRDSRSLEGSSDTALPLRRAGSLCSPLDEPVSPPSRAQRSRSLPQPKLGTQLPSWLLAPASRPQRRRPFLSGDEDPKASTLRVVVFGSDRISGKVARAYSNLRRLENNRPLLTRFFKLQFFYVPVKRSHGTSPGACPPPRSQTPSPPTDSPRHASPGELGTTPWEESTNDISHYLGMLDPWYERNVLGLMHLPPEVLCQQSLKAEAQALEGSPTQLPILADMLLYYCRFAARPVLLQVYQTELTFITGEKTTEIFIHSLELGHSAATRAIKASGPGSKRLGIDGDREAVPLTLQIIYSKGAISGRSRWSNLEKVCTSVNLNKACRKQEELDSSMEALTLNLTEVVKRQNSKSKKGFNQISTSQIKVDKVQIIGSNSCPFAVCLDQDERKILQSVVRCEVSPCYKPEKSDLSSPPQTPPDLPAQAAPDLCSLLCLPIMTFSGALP
Kind of assay: PI3Kγ In Vitro Kinase Assay. The format is biochemical. The following applies: purified recombinant p101/p110γ with G protein β1/γ2 subunits; 20 μM ATP, 25 μM PIP2; 20 minutes at room temperature. Here is the method:
Spodtera frugiperda cells, grown in ESF921 media, were coinfected with baculovirus expressing a glu-tagged p101 and baculovirus expressing an HA-tagged p110γ, at a 3:1 ratio of p101 baculovirus to p110γ baculovirus. Sf9 cells were grown to 1×10^7 total cells/mL in 10L bioreactors and harvested 48-72 hours post infection. Samples of infected cells were then tested for expression of p101/p110γ PI3 kinase by immunoprecipitation and Western Blot analysis methods (see below). […] NaCl was added to 150 mM, and sodium cholate was added to 1% and mixed for another 45 minutes. The lysates were clarified by centrifugation for 25 minutes at 14,000 rpm. The lysates were then loaded over anti-glu-linked Protein-G Sepaharose beads (Covance Research Products, Richmond, Calif.) using 20 mL resin/50 g cell paste. […] PI3Kγ was eluted with 6 column volumes of wash buffer that contain 100 μg/mL of a peptide that competes for binding of the glu tag. […] The fractions were stored at -80° C. until further use. Spodtera frugiperda cells were coinfected with baculovirus expressing a glu-tagged G protein β1 and baculovirus expressing a G protein […] at a 1:1 ratio of glu-tagged G protein β1 baculovirus to G protein β2 baculovirus. Sf9 cells are grown in 10 L bioreactors and harvested 48-72 hours post infection. Samples of infected cells were tested for G protein β1/β2 expression by Western Blot analysis, as described below. Cell lysates were homogenized and loaded onto a column of glu-tagged beads as in Biological Example 1 and competed off the column with a glu peptide as described in Biological Example 1. The inhibitory properties of the compounds in Table 1 were assayed in an in vitro PI3K assay. In a 96-well polypropylene plate, each well was spotted with 2 μL of […] the desired final concentration of compound in DMSO. Purified recombinant p101/p110γ protein (0.03 μg; 2.7 nM) and G protein β1/γ2 subunits (0.09 μg; 57.7 nM) for each reaction was combined in the assay buffer (30 mM HEPES, 100 mM NaCl, 1 mM EGTA, and 1 mM DTT). ATP and [γ-^32P-ATP] (0.09 μCi) were added to this mixture so that the final ATP concentration in the reaction was 20 μM. Lipid micelles were formed by sonicating phosphatidylinositol-4,5-diphosphate (PIP2), phosphatidylethanolamine (PE), and Na-cholate in the assay buffer for 10 minutes, adding MgCL2 and incubating on ice for 20 minutes, for final concentrations of 25 μM PIP2, 300 [M PE, 0.02% Na-cholate, and 10 mM MgCl2 in the reaction. The reactions were started by adding equal volumes lipid and enzyme mixture in a total volume of 50 μL, allowed to run for 20 minutes at room temperature, and stopped with 100 μL 75 mM H3PO4. The lipid product was transferred to a glass fiber filter plate and washed with 75 mM H3PO4 several times. The presence of radioactive lipid product (PIP3) was measured by adding Wallac Optiphase mix to each well and counting in a Wallac 1450 Trilux plate reader (PerkinElmer Life Sciences Inc., Boston, Mass. 02118).
In the case of `O=C(O)CN1C(=O)C(=Cc2cc(F)c3c(c2)N(Cc2ccc(F)c(Cl)c2)C(=O)CO3)SC1=S` [Example 296, {5-[4-(3-Chloro-4-fluoro-benzyl)-8-fluoro-3-oxo-3,4-dihydro-2H-benzo[1,4]oxazin-6-ylmethylene]-4-oxo-2-thioxo-thiazolidin-3-yl}-acetic acid; compound with ethane-1,2-diamine], the pIC50 was 5.41. Then `Cc1cc(CN2C(=O)COc3ccc(C=C4SC(=S)NC4=O)cc32)cc(-c2ccsc2)c1` [Example 116, 4-(3-Methyl-5-thiophene-3-yl-benzyl)-6-(4-oxo-2-thioxo-thiazolidin-5-ylidenemethyl)-4H-benzo[1,4]oxazin-3-one], with 7.62; and `O=C1NC(=S)SC1=Cc1ccc2c(c1)N(Cc1cccs1)C(=O)CO2` [Example 333, 6-(4-Oxo-2-thioxo-thiazolidin-5-ylidenemethyl)-4-thiophen-2-ylmethyl-4H-1,4-benzoxazin-3-one], with 8.15; and `CC(C)(C)c1cc(CN2C(=O)COc3ccc(C=C4SC(=O)NC4=O)cc32)cc(C(C)(C)C)n1` [Example 66, 5-[4-(2,6-Di-tert-butyl-pyridin-4-ylmethyl)-3-oxo-3,4-dihydro-2H-1,4-benzoxazin-6-ylmethylene]-thiazolidine-2,4-dione], with 6.59.

Turning to `O=C1NC(=S)OC1=Cc1ccc2c(c1)N(Cc1ccc(Cl)c(C(F)(F)F)c1)C(=O)CO2` [Example 196, 4-(4-Chloro-3-trifluoromethyl-benzyl)-6-(4-oxo-2-thioxo-oxazolidin-5-ylidenemethyl)-4H-1,4-benzoxazin-3-one], the negative-log IC50 (pIC50) was 7.59. Then `O=C1NC(=S)SC1=Cc1ccc2c(c1)N(Cc1cccc(I)c1)C(=O)CO2` [Example 40, 4-(3-Iodo-benzyl)-6-(4-oxo-2-thioxo-thiazolidin-5-ylidenemethyl)-4H-1,4-benzoxazin-3-one], with 7.82.

Regarding `CN1CCN(C(=O)c2cc(CN3C(=O)COc4ccc(/C=C5\SC(=S)NC5=O)cc43)cc(C(C)(C)C)c2)CC1` [Example 279, 4-[3-tert-Butyl-5-(4-methyl-piperazine-1-carbonyl)-benzyl]-6-[4-oxo-2-thioxo-thiazolidin-(5Z)-ylidenemethyl]-4H-benzo[1,4]oxazin-3-one], the pIC50 is 7.80.

In the case of `O=C(O)CN1C(=O)COc2ccc(C=C3SC(=S)NC3=O)cc21` [Example 3, [3-Oxo-6-(4-oxo-2-thioxo-thiazolidin-5-ylidenemethyl)-2,3-dihydro-1,4-benzoxazin-4-yl]-acetic acid], the pIC50 was 6.20. The same measure for `COc1cc(C=C2SC(=S)NC2=O)cc2c1OCC(=O)N2` [Example 6, 8-Methoxy-6-(4-oxo-2-thioxo-thiazolidin-5-ylidenemethyl)-4H-1,4-benzoxazin-3-one]: 6.25; for `Cc1cncc(CN2C(=O)COc3ccc(C=C4SC(=S)NC4=O)cc32)c1` [Example 334, 4-(5-Methyl-pyridin-3-ylmethyl)-6-(4-oxo-2-thioxo-thiazolidin-5-ylidenemethyl)-4H-1,4-benzoxazin-3-one]: 7.60; for `O=C1NC(=S)SC1=Cc1ccc2c(c1)N(Cc1ccccc1)C(=O)CO2` [Example 180, 4-Benzyl-6-(4-oxo-2-thioxo-thiazolidin-5-ylidenemethyl)-4H-1,4-benzoxazin-3-one]: 8.05. In the case of `CC(=O)OCc1cc(CN2C(=O)COc3ccc(C=C4SC(=S)NC4=O)cc32)cc(C(C)(C)C)c1` [Example 70, Acetic acid 3-tert-butyl-5-[3-oxo-6-(4-oxo-2-thioxo-thiazolidin-5-ylidenemethyl)-2,3-dihydro-1,4-benzoxazin-4-ylmethyl]-benzyl ester], the pIC50 is 7.92. Then `O=C1NC(=S)SC1=Cc1ccc2c(c1)N(Cc1ccc3ccccc3c1)C(=O)CO2` [Example 188, 4-Naphthalen-2-ylmethyl-6-(4-oxo-2-thioxo-thiazolidin-5-ylidenemethyl)-4H-1,4-benzoxazin-3-one], with 7.70; and `CCc1cc(CN2C(=O)COc3ccc(C=C4SC(=S)NC4=O)cc32)cc(C(C)(C)C)c1` [Example 63, 4-(3-tert-Butyl-5-ethyl-benzyl)-6-(4-oxo-2-thioxo-thiazolidin-5-ylidenemethyl)-4H-1,4-benzoxazin-3-one], with 7.31; and `O=C1NC(=S)SC1=Cc1ccc2c(c1)N(Cc1cccc(OC(F)(F)F)c1)C(=O)CO2` [Example 156, 6-(4-Oxo-2-thioxo-thiazolidin-5-ylidenemethyl)-4-(3-trifluoromethoxy-benzyl)-4H-1,4-benzoxazin-3-one], with 7.68.

As to `CCN(CC)Cc1ccc(CN2C(=O)COc3c(Cl)cc(C=C4SC(=S)NC4=O)cc32)cc1` [Example 78, 8-Chloro-4-(4-diethylaminomethyl-benzyl)-6-(4-oxo-2-thioxo-thiazolidin-5-ylidenemethyl)-4H-1,4-benzoxazin-3-one], the negative logarithm of the IC50 (pIC50) is 7.24.

As for `O=C1NC(=S)S/C1=C\c1ccc2oc(=O)n(Cc3ccccc3)c2c1` [Example 290, 3-Benzyl-5-[4-oxo-2-thioxo-thiazolidin-(5Z)-ylidenemethyl]-3H-benzooxazol-2-one; Compound with Ethane-1,2-diamine], the negative-log IC50 (pIC50) was 6.61. In the case of `Cc1cc(C=C2SC(=S)NC2=O)cc2c1OCC(=O)N2Cc1cc(C(C)(C)C)cc(C(C)(C)C)c1` [Example 61, 4-(3,5-Di-tert-butyl-benzyl)-8-methyl-6-(4-oxo-2-thioxo-thiazolidin-5-ylidenemethyl)-4H-1,4-benzoxazin-3-one], the pIC50 is 7.15. Then `CC(=O)Oc1ccc(CN2C(=O)COc3ccc(C=C4SC(=S)NC4=O)cc32)cc1` [Example 248, Acetic acid 4-[3-oxo-6-(4-oxo-2-thioxo-thiazolidin-5-ylidenemethyl)-2,3-dihydro-1,4-benzoxazin-4-ylmethyl]-phenyl ester], with 7.68; and `O=C1NC(=S)SC1=Cc1ccc2c(c1)N(CCCCCc1ccccc1)C(=O)CO2` [Example 175, 6-(4-Oxo-2-thioxo-thiazolidin-5-ylidenemethyl)-4-(5-phenyl-pentyl)-4H-1,4-benzoxazin-3-one], with 8.40; and `O=C1NC(=S)SC1=Cc1ccc2c(c1)N(Cc1ccoc1)C(=O)CO2` [Example 340, 4-Furan-3-ylmethyl-6-(4-oxo-2-thioxo-thiazolidin-5-ylidenemethyl)-4H-1,4-benzoxazin-3-one], with 7.89.

Take `Cc1cc(CN2CCOCC2)cc(CN2C(=O)COc3ccc(C=C4SC(=S)NC4=O)cc32)c1` [Example 42, 4-(3-Methyl-5-morpholin-4-ylmethyl-benzyl)-6-(4-oxo-2-thioxo-thiazolidin-5-ylidenemethyl)-4H-1,4-benzoxazin-3-one]: the pIC50 is 7.39. Then `CC(CN1C(=O)COc2ccc(C=C3SC(=S)NC3=O)cc21)c1ccccc1` (centres unmarked) [Example 173, 6-(4-Oxo-2-thioxo-thiazolidin-5-ylidenemethyl)-4-(2-phenyl-propyl)-4H-1,4-benzoxazin-3-one], with 7.41; and `CN(C)S(=O)(=O)c1ccc(CN2C(=O)COc3ccc(/C=C4\SC(=S)NC4=O)cc32)cc1` [Example 264, N,N-Dimethyl-4-{3-oxo-6-[4-oxo-2-thioxo-thiazolidin-(5Z)-ylidenemethyl]-2,3-dihydro-benzo[1,4]oxazin-4-ylmethyl}-benzenesulfonamide], with 8.40.

In the case of `O=C1NC(=S)SC1=Cc1cc(Cl)c2c(c1)N(Cc1ccccc1)C(=O)CO2` [Example 50, 4-Benzyl-8-chloro-6-(4-oxo-2-thioxo-thiazolidin-5-ylidenemethyl)-4H-1,4-benzoxazin-3-one], the negative logarithm of the IC50 (pIC50) is 8.00.

Consider `CC(C)N(CCCN1C(=O)COc2c(F)cc(C=C3SC(=S)NC3=O)cc21)C(C)C` [Example 245, 4-(3-Diisopropylamino-propyl)-8-fluoro-6-(4-oxo-2-thioxo-thiazolidin-5-ylidenemethyl)-4H-benzo[1,4]oxazin-3-one], for which the pIC50 is 6.73.
